Experimental data as given in patent US7667040B2, “Azacyclic ethynyl derivatives” (Neurosearch A/S, priority 2002, dated 2010).
Structures can show the parent of a compound that is named as a salt. Where two headings read alike, the source gives them in different places.

Assays:
[1] = molecular target: T1, α7-subtype of nicotinic receptors (Rattus norvegicus, UniProt Q05941); experiment: In vitro inhibition of 3H-α-bungarotoxine binding in rat brain
T1 construct: Cerebral cortices from male Wistar rats (150-250 g) are homogenised; from tissue; host or cells: rat cerebral cortex membrane homogenate
T1 sequence (Q05941 23-502): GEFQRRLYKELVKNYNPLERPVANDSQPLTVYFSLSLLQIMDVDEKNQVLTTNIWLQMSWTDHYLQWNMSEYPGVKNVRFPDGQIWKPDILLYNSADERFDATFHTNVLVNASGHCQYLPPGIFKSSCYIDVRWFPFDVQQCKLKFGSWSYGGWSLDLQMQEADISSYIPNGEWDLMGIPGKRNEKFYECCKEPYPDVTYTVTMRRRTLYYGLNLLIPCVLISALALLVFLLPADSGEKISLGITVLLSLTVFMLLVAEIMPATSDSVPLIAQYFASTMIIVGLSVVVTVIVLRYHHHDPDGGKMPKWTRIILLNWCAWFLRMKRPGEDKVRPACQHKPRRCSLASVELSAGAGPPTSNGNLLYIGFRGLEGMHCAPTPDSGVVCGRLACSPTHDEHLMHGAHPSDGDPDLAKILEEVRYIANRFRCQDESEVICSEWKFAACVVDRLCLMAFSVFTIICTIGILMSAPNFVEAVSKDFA

serotonin transporter = molecular target: T2, serotonin transporter (Rattus norvegicus, UniProt P31652); experiment: In vitro inhibition of 3H-5-hydroxytryptamine uptake in cortical synaptosomes; assay type: biochemical; conditions: 1 nM 3H-5-HT, 30 minutes at 37° C.
T2 construct: Cerebral cortices from male Wistar rats (150-200 g) are homogenized; from tissue; host or cells: rat cerebral cortex synaptosomes (P2 pellet)
T2 sequence (P31652 whole entry): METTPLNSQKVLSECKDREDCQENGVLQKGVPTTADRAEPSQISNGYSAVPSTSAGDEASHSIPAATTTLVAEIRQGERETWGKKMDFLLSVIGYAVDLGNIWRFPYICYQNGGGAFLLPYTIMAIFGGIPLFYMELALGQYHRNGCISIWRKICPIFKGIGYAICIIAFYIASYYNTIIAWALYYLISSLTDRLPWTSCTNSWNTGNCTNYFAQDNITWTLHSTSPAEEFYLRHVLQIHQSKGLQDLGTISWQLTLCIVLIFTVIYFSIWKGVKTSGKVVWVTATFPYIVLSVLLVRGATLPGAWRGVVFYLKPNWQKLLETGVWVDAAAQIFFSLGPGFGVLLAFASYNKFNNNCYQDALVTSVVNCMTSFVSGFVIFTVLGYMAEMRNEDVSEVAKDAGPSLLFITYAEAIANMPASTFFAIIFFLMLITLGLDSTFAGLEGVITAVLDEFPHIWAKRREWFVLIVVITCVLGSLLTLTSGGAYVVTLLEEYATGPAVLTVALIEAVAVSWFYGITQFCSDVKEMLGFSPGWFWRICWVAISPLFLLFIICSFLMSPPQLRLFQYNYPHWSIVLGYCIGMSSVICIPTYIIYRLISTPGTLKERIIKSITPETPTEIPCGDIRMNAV
Experimental: In vitro Inhibition of ^3H-5-Hydroxytryptamine Uptake in Cortical Synaptosomes
Serotonin transporters/uptake sites on nerve terminals presumably function to terminate neuronal signaling by removing serotonin from the synaptic cleft. The activity of the serotonin transporter integral protein can be measured in vitro by synaptosomal uptake of ^3H-5-hydroxytryptamine (5-HT, serotonin).
Preparations are performed at 0-4° C. Cerebral cortices from male Wistar rats (150-200 g) are homogenized for 5-10 seconds in 100 volumes of ice-cold 0.32 M sucrose containing 1 mM pargyline, using a motor driven teflon pestle in a glass homogenizing vessel. Monoamine oxidase activity is inhibited in the presence of pargyline.
The homogenate is subjected to centrifugation at 1000×g for 10 minutes. The resulting supernatant is then centrifuged at 27,000×g for 50 minutes and the supernatant is discarded. The pellet (P2) is re-suspended in oxygenated (equilibrated with an atmosphere of 96% O2: 4% CO2 for at least 30 minutes) Krebs-Ringer incubation buffer (1000 ml per g of original tissue) at pH 7.2 containing 122 mM NaCl, 0.16 mM EDTA, 4.8 mM KCl, 12.7 mM Na2HPO4, 3.0 mM NaH2PO4, 1.2 mM MgSO4, 1 mM CaCl2, 10 mM glucose and 1 mM ascorbic acid.
Aliquots of 4.0 ml tissue suspension are added to 100 μl, of test solution and 100 μl of ^3H-5-HT (1 nM, final concentration), mixed and incubated for 30 minutes at 37° C. Non-specific uptake is determined using Citalopram (1 μM, final concentration, available from Lundbeck, Denmark).
After incubation, the samples are poured directly onto Whatman GF/C glass fibre filters under suction. The filters are washed three times with 5 ml of ice-cold 0.9% (w/v) NaCl solution.
The amount of radioactivity on the filters is determined by conventional liquid scintillation counting. Specific uptake is calculated as the difference between total uptake and non-specific uptake.
25-75% inhibition of specific binding must be obtained, before calculation of an IC50.
The test value is given as IC50 (the concentration (μM) of the test substance which inhibits the specific binding of ^3H-5-HT by 50%).

[2] = rat cerebral cortex homogenate, 2 nM 3H-α-bungarotoxine, 2 hours at 37° C., read-out: Inhibition of 3H-α-Bungarotoxine Binding IC50

Compound | IC50 [1] | IC50 (serotonin transporter) | IC50 [1, 2]
CN1C2C=C(C#Cc3ccccc3)CC1CC2 (racemic) [Compound 1, (±)-8-Methyl-3-phenyletynyl-8-azabicyclo[3.2.1]oct-2-ene fumaric acid salt] | 320 nM | 110 nM | 
C[N+]1(C)C2C=C(C#Cc3ccccc3)CC1CC2 (racemic) [Compound B1, (±)-8,8-Dimethyl-3-phenyletynyl-8-azabicyclo[3.2.1]oct-2-ene iodide salt] |  |  | 2 nM
C(#Cc1ccccc1)C1=CN2CCC1CC2 [Compound A1, (±)-3-Phenyletynyl-quinuclidin-2-ene] |  | 420 nM | 180 nM
C[N+]12C=C(C#Cc3ccccc3)C(CC1)CC2 (racemic) [Compound B2, (±)-1-Methyl-3-phenyletynyl-quinuclidin-2-ene iodide salt] |  | 100 nM | 600 nM
C(#Cc1ccccc1)C1=CC2CCC(C1)N2 (racemic) [Compound C1, (±)-8-H-3-Phenyletynyl-8-azabicyclo[3.2.1]oct-2-ene fumaric acid salt] |  | 99 nM | 
